# In patent US20120251613A1, “METHOD FOR TREATING VITILIGO WITH A PROSTAGLANDIN ANALOGUE” (AGILA SPECIALITIES PVT. LTD., priority 2011, published 2012):
# Entries after “also recorded” stand apart in the source; their conditions may differ.
# Tests used:
# [1] = test system: Patients with vitiligo; test: Clinical efficacy of topical bimatoprost solution for treatment of vitiligo: degree of repigmentation; type: in vivo, human; conditions: for number of patients with Complete repigmentation (100%) / number of patients with Excellent repigmentation (75-99%) / number of patients with Marked repigmentation (50-74%) / number of patients with Moderate repigmentation (25-49%) / number of patients with Nil/mild repigmentation (less than 25%) / Repigmentation of body sites: number with Complete repigmentation (100%) / Repigmentation of body sites: number with Excellent repigmentation (75-99%) / Repigmentation of body sites: number with Marked repigmentation (50-74%) / Repigmentation of body sites: number with Moderate repigmentation (25-49%) / Repigmentation of body sites: number with Nil/mild repigmentation (less than 25%): 0.03% solution topically twice a day, 4 months
# Method: 20 Patients with vitiligo were treated with topical bimatoprost solution for 4 months to elucidate its efficacy and tolerability in stable vitiligo. The solution contained bimatoprost in a concentration of 0.3 mg/mL (0.03%), benzalkonium chloride in a concentration of 0.05 mg/mL, and water. The solution has a pH of between 6.8 and 7.8, and contains sodium chloride, a dibasic sodium phosphate/citric acid buffer, and sodium hydroxide and/or hydrochloric acid to adjust the pH. The subjects had suffered from vitiligo for a period of between 8 and 80 months. The average period of depigmentation for the patients was 26.7 months. All the patients were examined by an independent observer. The percentage of repigmentation in form of color or size changes and folliculocentric/peripheral repigmentation were observed. […] Specifically, Nil/Mild repigmentation means that the skin has undergone less than 25% repigmentation, i.e., less than 25% of the skin surface has repigmented or, if repigmentation is observed, the skin has regained less than 25% of its natural color. Moderate repigmentation means that the skin has undergone 25-49% repigmentation, as measured by repigmented surface are and/or skin color. Marked repigmentation means that the skin has undergone 50-74% repigmentation, and excellent repigmentation means that the skin has undergone 75-99% repigmentation. Complete response means that repigmented skin lesions from vitiligo are indistinguishable from skin which has never been depigmented. The repigmentation effect of the composition starts rapidly within one to two months after starting the treatment. Topical treatment with bimatoprost is continued for a period of at least two months. If no response is observed to treatment with topical bimatoprost, treatment is stopped at the end of two months. If a mild or moderate response to treatment with topical bimatoprost is observed, therapy is continued for at least 4 months, while observing the patient for any further delayed improvement. In cases where complete or excellent response to topical bimatoprost is observed, treatment is stopped to determine whether relapse, i.e., whether loss of pigmentation is observed upon cessation of bimatoprost therapy. The frequency of application of the topical bimatoprost as an aqueous solution is twice a day.
# [2] = cited from earlier work
# [3] = test system: Patients with vitiligo; test: Follow-up for 6 months after stopping bimatoprost treatment: positive response and relapse; type: in vivo, human; conditions: for Response positive (at least 25% repigmentation), number of patients / Response positive, ratio to total number of patients: 6 months after stopping therapy; for Relapse/loss of pigment, number of patients / Relapse/loss of pigment, percentage of patients with positive response: 6 months following cessation of therapy
# From the text: The hypothetical mechanism of repigmentation would be of increased melanogenesis in dermal melanocytes together with increased transfer of melanin granules to the basal melanocytes.
# [4] = test system: Patients with vitiligo; test: Tolerability / side effects during therapy with topical bimatoprost; type: in vivo, human
# Method: 20 Patients with vitiligo were treated with topical bimatoprost solution for 4 months to elucidate its efficacy and tolerability in stable vitiligo. The solution contained bimatoprost in a concentration of 0.3 mg/mL (0.03%), benzalkonium chloride in a concentration of 0.05 mg/mL, and water. The solution has a pH of between 6.8 and 7.8, and contains sodium chloride, a dibasic sodium phosphate/citric acid buffer, and sodium hydroxide and/or hydrochloric acid to adjust the pH.
# All the patients were examined by an independent observer. The percentage of repigmentation in form of color or size changes and folliculocentric/peripheral repigmentation were observed.
# [5] = site Mucosae (mucosal vitiligo or non-mucosal vitiligo progressed to mucosal surfaces)
# [6] = vitiliginous lesions on the face or neck
# [7] = vitiliginous lesions on the trunk or extremities
compound,measurement,setting,value
"CCNC(=O)CCCC=CCC1C(O)CC(O)C1C=CC(O)CCc1ccccc1 (stereo not drawn) [bimatoprost, 7-[3,5-dihydroxy-2-(3-hydroxy-5-phenyl-pent-1-enyl)-cyclopentyl]-N-ethyl-hept-5-enamide]","complete clearance of vitiligo lesions (100% repigmentation), percentage of patients",[1]; 20 patients,30%
same,"marked to excellent repigmentation (50-99%), percentage of patients",[1]; 20 patients,55%
same,"patients in whom repigmentation was observed, percentage","[1]; 20 patients, all types of vitiligo",70%
same,number of patients with Complete repigmentation (100%),[1]; Focal vitiligo,1
same,number of patients with Excellent repigmentation (75-99%),[1]; Focal vitiligo,4
same,number of patients with Marked repigmentation (50-74%),[1]; Focal vitiligo,1
same,number of patients with Moderate repigmentation (25-49%),[1]; Focal vitiligo,0
same,number of patients with Nil/mild repigmentation (less than 25%),[1]; Focal vitiligo,0
same,number of patients with Complete repigmentation (100%),[1]; Mucosal vitiligo,0
same,number of patients with Excellent repigmentation (75-99%),[1]; Mucosal vitiligo,0
same,number of patients with Marked repigmentation (50-74%),[1]; Mucosal vitiligo,0
same,number of patients with Moderate repigmentation (25-49%),[1]; Mucosal vitiligo,0
same,number of patients with Nil/mild repigmentation (less than 25%),[1]; Mucosal vitiligo,2
same,number of patients with Complete repigmentation (100%),[1]; Segmental vitiligo,1
same,number of patients with Excellent repigmentation (75-99%),[1]; Segmental vitiligo,2
same,number of patients with Marked repigmentation (50-74%),[1]; Segmental vitiligo,1
same,number of patients with Moderate repigmentation (25-49%),[1]; Segmental vitiligo,0
same,number of patients with Nil/mild repigmentation (less than 25%),[1]; Segmental vitiligo,0
same,mean onset of pigmentation after initiation of therapy,[1]; all patients,2 months
same,patients treated with at least 50% repigmentation,[1]; all patients treated,75%
same,"response of lesions, in words",[1]; lesions on mucosal surfaces or on the extremities,respond poorly
same,vitiliginous lesions showing at least 50% repigmentation,[1]; lesions on the face and neck,all vitiliginous lesions
same,vitiliginous lesions showing at least 50% repigmentation,[1]; lesions on the trunk,66%
same,repigmentation commencing after initiation of therapy,[1]; new patients (vitiligo for 6 months or less),four to six
same,"patients in whom repigmentation was observed, number","[1]; out of 20 patients, all types of vitiligo",14
same,"repigmentation, in words",[1]; remaining patients with generalized vitiligo,little or no repigmentation
same,patients exhibiting at least 50% repigmentation (at least marked),[1]; segmental or focal vitiligo,all patients
same,Repigmentation of body sites: number with Complete repigmentation (100%),[1]; site Extremities,0
same,Repigmentation of body sites: number with Excellent repigmentation (75-99%),[1]; site Extremities,0
same,Repigmentation of body sites: number with Marked repigmentation (50-74%),[1]; site Extremities,0
same,Repigmentation of body sites: number with Moderate repigmentation (25-49%),[1]; site Extremities,2
same,Repigmentation of body sites: number with Nil/mild repigmentation (less than 25%),[1]; site Extremities,2
same,Repigmentation of body sites: number with Complete repigmentation (100%),[1]; site Head & neck,4
same,Repigmentation of body sites: number with Excellent repigmentation (75-99%),[1]; site Head & neck,4
same,Repigmentation of body sites: number with Marked repigmentation (50-74%),[1]; site Head & neck,2
same,Repigmentation of body sites: number with Moderate repigmentation (25-49%),[1]; site Head & neck,0
same,Repigmentation of body sites: number with Nil/mild repigmentation (less than 25%),[1]; site Head & neck,0
same,Repigmentation of body sites: number with Complete repigmentation (100%),[1]; [5],0
same,Repigmentation of body sites: number with Excellent repigmentation (75-99%),[1]; [5],0
same,Repigmentation of body sites: number with Marked repigmentation (50-74%),[1]; [5],0
same,Repigmentation of body sites: number with Moderate repigmentation (25-49%),[1]; [5],2
same,Repigmentation of body sites: number with Nil/mild repigmentation (less than 25%),[1]; [5],2
same,Repigmentation of body sites: number with Complete repigmentation (100%),[1]; site Trunk,0
same,Repigmentation of body sites: number with Excellent repigmentation (75-99%),[1]; site Trunk,2
same,Repigmentation of body sites: number with Marked repigmentation (50-74%),[1]; site Trunk,2
same,Repigmentation of body sites: number with Moderate repigmentation (25-49%),[1]; site Trunk,0
same,Repigmentation of body sites: number with Nil/mild repigmentation (less than 25%),[1]; site Trunk,2
same,start of the repigmentation effect after starting the treatment,"[1]; topical, twice a day",one to two
same,number of patients with Complete repigmentation (100%),[1]; vitiligo Vulgaris,2
same,number of patients with Excellent repigmentation (75-99%),[1]; vitiligo Vulgaris,2
same,number of patients with Marked repigmentation (50-74%),[1]; vitiligo Vulgaris,1
same,number of patients with Moderate repigmentation (25-49%),[1]; vitiligo Vulgaris,0
same,number of patients with Nil/mild repigmentation (less than 25%),[1]; vitiligo Vulgaris,3
same,"repigmentation, in words",[1]; vitiligo restricted to the mucosal surfaces or to the extremities,little or no repigmentation
same,patients exhibiting at least 50% repigmentation (at least marked),[1]; vitiligo vulgaris (generalized vitiligo),More than 60%
same,solubility in water,[2],only slightly soluble; also recorded: very low
same,"Response positive (at least 25% repigmentation), number of patients","[3]; Extremities, 4 patients",2
same,"Response positive, ratio to total number of patients","[3]; Extremities, 4 patients",50%
same,"Relapse/loss of pigment, number of patients",[3]; Extremities,1
same,"Relapse/loss of pigment, percentage of patients with positive response",[3]; Extremities,50%
same,"Response positive (at least 25% repigmentation), number of patients","[3]; Face and neck, 10 patients",10
same,"Response positive, ratio to total number of patients","[3]; Face and neck, 10 patients",100%
same,"Relapse/loss of pigment, number of patients",[3]; Face and neck,1
same,"Relapse/loss of pigment, percentage of patients with positive response",[3]; Face and neck,10%
same,"Response positive (at least 25% repigmentation), number of patients","[3]; Focal, 6 patients",6
same,"Response positive, ratio to total number of patients","[3]; Focal, 6 patients",100%
same,"Relapse/loss of pigment, number of patients",[3]; Focal,0
same,"Response positive (at least 25% repigmentation), number of patients","[3]; Mucosal, 2 patients",0
same,"Relapse/loss of pigment, number of patients",[3]; Mucosal,0
same,"Response positive (at least 25% repigmentation), number of patients","[3]; Segmental, 4 patients",4
same,"Response positive, ratio to total number of patients","[3]; Segmental, 4 patients",100%
same,"Relapse/loss of pigment, number of patients",[3]; Segmental,0
same,"Response positive (at least 25% repigmentation), number of patients","[3]; Trunk, 6 patients",4
same,"Response positive, ratio to total number of patients","[3]; Trunk, 6 patients",66%
same,"Relapse/loss of pigment, number of patients",[3]; Trunk,2
same,"Relapse/loss of pigment, percentage of patients with positive response",[3]; Trunk,50%
same,"Response positive (at least 25% repigmentation), number of patients","[3]; Vulgaris, 8 patients",4
same,"Response positive, ratio to total number of patients","[3]; Vulgaris, 8 patients",50%
same,"Relapse/loss of pigment, number of patients",[3]; Vulgaris,1
same,"Relapse/loss of pigment, percentage of patients with positive response",[3]; Vulgaris,25%
same,patients exhibiting a positive response 6 months after stopping therapy,[3]; focal or segmental vitiligo,100%
same,patients with positive response showing measurable depigmentation after 6 months,[3]; focal or segmental vitiligo,none
same,patients exhibiting a positive response 6 months after stopping therapy,"[3]; generalized vitiligo (vitiligo vulgaris), eight patients",50%
same,"patients exhibiting a positive response 6 months after stopping therapy, number","[3]; generalized vitiligo (vitiligo vulgaris), of eight patients",four
same,"patients with positive response showing measurable depigmentation after 6 months, number","[3]; generalized vitiligo, of four responders",one
same,patients exhibiting a positive response 6 months after stopping therapy,[3]; [6],100%
same,patients with positive response showing measurable depigmentation after 6 months,[3]; [6],none
same,patients exhibiting a positive response 6 months after stopping therapy,[3]; [7],60%
same,patients with positive response showing measurable depigmentation after 6 months,[3]; [7],60%
same,severe adverse reactions during the trial,"[4]; 20 patients, 0.03% solution topically, 4 months",No severe adverse reactions
same,most commonly observed side effect,"[4]; after application, especially on the lips",transient burning sensation
same,incidence of side-effects during therapy,"[4]; topical, 20 patients",20%
same,severity of side effects,"[4]; topical, 20 patients",mild
